{"source": "paper PMC12090178", "about": "“Exploring the Potential of Homologous Recombination Protein PALB2 in Synthetic Lethal Combinations” (ACS Chemical Biology, 2025)", "key": {"[1]": {"system": "HEK293 PALB2 IKZF3d/IKZF3d knock-in cells", "assay": "Cell viability assay (WST-1)", "type": "cell-based", "details": "homozygous KI cells pretreated with 10 μM Pom, then DNA damaging drug, 5 days cotreatment, WST1"}, "[2]": {"molecular_target": "T1, PALB2 C-terminal domain (PALB2C) (Homo sapiens, UniProt Q86YC2)", "T1 construct": "C terminal part of Palb2 (aa 835-1186); His tag (C); 3C protease site; host or cells: Hi5 insect cells (virus produced and amplified in Sf9)", "T1 sequence (Q86YC2 835-1186)": "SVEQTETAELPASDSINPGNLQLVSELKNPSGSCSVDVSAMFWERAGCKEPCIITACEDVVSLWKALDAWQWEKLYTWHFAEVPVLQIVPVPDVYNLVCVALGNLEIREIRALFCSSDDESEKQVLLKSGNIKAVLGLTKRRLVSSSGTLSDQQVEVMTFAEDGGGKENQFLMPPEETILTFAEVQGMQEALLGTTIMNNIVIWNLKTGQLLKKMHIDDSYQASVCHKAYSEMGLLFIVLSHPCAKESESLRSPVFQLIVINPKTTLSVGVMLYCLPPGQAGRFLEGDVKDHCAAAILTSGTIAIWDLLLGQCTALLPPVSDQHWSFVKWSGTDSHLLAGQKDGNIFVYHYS", "assay": "Direct fluorescence polarization of labelled BRCA2 peptides", "type": "binding", "details": "for Kd: direct FP, PALB2C source Hi5 insect cells, labelled peptide 10 nM, PALB2C serially diluted from 4.4 μM, 20 mM HEPES, 100 mM NaCl, 1 mM DTT, 1 mM EDTA, 0.01% IGEPAL CA-630, 20 min RT, read at 25 °C, N = 3-20", "protocol": "FLU-GG-[…] (Peptide Protein Research Ltd., Fareham, UK) was dissolved in DMSO at 1 μM. PALB2C (22 μM, in 20 mM HEPES, 100 mM NaCl, 1 mM DTT, 1 mM EDTA) was diluted to a final concentration of 4.4 μM (same buffer supplemented with 0.01% (v/v) IGEPAL CA-630). The protein was serially diluted and fluorescent peptide was added to a final concentration of 10 nM. After incubation in the dark at RT for 20 min, fluorescence polarization was measured (ex: 485:20, em: 535:25, 25 °C). KD was obtained by fitting the signal to a binding model using the python lmfit package with the nonlinear least-squares method.[51]\n9 Fluorescent polarization assay\n9.1.1 Insect cell expression\nPALB2-C was synthesized by the EPFL protein production facility0F1. In short; the virus was produced and amplified in Sf9 cells. C-terminal His-Tagged 3C-PALB2C was grown in 5 L o f Hi5 cells and harvested after 3 days. Pellet was frozen, defrosted and resuspended in 200 mL of wash buffer, supplemented to 5 % glycerol (v/v), 50 μL benzonase, and 2 protease inhibitor tablets. The mixture was clarified with a French press for a total of 4 cycles and centrifu g e d a t 32 kcfg for 1 h. The supernatant was decanted, supplemented with imidazole to a final concentration of 25 mM and added to 5 mL of Ni-NTA bead s. The b ead s were in cub ated with […]\nThe beads were washed with 40 column volumes (CV) with wash buffer (500 mM NaCl, 20 mM HEPES, pH 7.5), 10 CV with wash buffer and 50 mM imid az o le . The protein was eluted with 6 CV of elution buffer (500 mM NaCl, 20 mM HEPES, 300 mM imidazole, pH 7.5) to a total volume of 38 mL. The elute was concentrated to 1 mL and injected onto a pre-equilibrated Superdex 200 10/300GL column (250 mM NaCl, 10 mM HEPES, 5 mM DTT, 1 mM EDTA, pH […]\nA total volume of 950 μL PALBC was received at a concentration of 1 mg/mL (equals 22 μM) in the superdex buffer. This corresponds to a yield of 0.19 mg/L of Hi5 cells. […]\nConcentration was measured on a NanoDrop 2000. The concentration was determined to be […]"}, "[3]": {"system": "PALB2-IKZF3d", "assay": "IMiD-induced degradation of PALB2-IKZF3d (Western blot)", "type": "cell-based", "details": "for rescue of pomalidomide-induced PALB2-IKZF3d degradation: 1 μM inhibitor 6 h, then 10 μM pomalidomide 18 h", "protocol": "5.1 Degradation of PALB2 and UPP rescue assays\nTo show PALB2 deegradation, cells were treated with pomalidomide at the indicated concentrations for 24 h. The cells were subsequently lysed and prepared for gel electrophoresis and western blotting.\nTo show UPP rescue, MG132 and MLN4924 were used to inhibit the ubiquitination-proteasome degradation pathway. The cells were first treated with 1 μM MG132 or 1 μM MLN4924. After 6 h, pomalidomide was added to a final concentration of 10 μM. After 18 h, the cells were collected and lysed.\nTo show PALB2 recovery, the cells were first treated with 10 μM pomalidomide or 10 μM iberdomide for 24 h. After that, the culture medium was removed, the cells were washed three times with fresh culture medium and then cultured with culture medium without IMiDs.\nThe cells were then collected an d l yse d . […]\nFigure S7. A). Degradation of endogenous PALB2.\nB). PALB2 de gra dation rescue expe ri ment. The cells in the degradation rescue group w ere first t reated with 1 μ M MG132 and 1 μ M M LN49 24 for 6 hou rs and then t reated with 10 μ M pomalidomide for 1 8 hours. Cell samples were collected for WB analysis. The asterisk represents a nonspecific band of PALB 2 with t his antibody. […]"}, "[4]": {"molecular_target": "T2, PALB2C (Homo sapiens, UniProt Q86YC2)", "T2 construct": "C terminal part of Palb2 (aa 835-1186); His tag (C); 3C protease site; host or cells: Hi5 insect cells (virus produced and amplified in Sf9)", "T2 sequence (Q86YC2 835-1186)": "T1 sequence (Q86YC2 835-1186)", "assay": "Displacement polarization assay (competition with FLU-GG-[…])", "details": "dark peptide 10 μM, probe FLU-GG-[…] 10 nM, 20 min RT, 25 °C, competitive binding fit", "experimental": "To the mixture above, the dark peptide was added at a final concentration of 10 μM (1000 eq. excess). After incubation in the dark at RT for 20 min, fluorescence polarization was measured (ex: 485:20, em: 535:25, 25 °C).KD was obtained by fitting the signal to a competitive binding model described previously[52] by using the python lmfit package with the nonlinear least-squares method.\n9.3 Displacement polarization assay\nThe displacement assay was set up similarly to the direct polarization assay. In addition to the\nDMSO) was added to a final concentration of 20 μM.\nμM and 10 nM for the peptide and the probe, respectively.\nThe resulting binding curve was fitted using the python lmfit package3 to a linearly transformed competitive KD binding model described previously4 using the non- linear least\n𝑚𝑚 = 𝐾𝐾D, Probe + 𝐾𝐾D, Pep + 𝑐𝑐Probe + 𝑐𝑐Pep − 𝑐𝑐Prot\n𝑛𝑛 = 𝐾𝐾D, Pep ⋅ (𝑐𝑐Probe − 𝑐𝑐Prot ) + 𝐾𝐾D, Probe ⋅ ?𝑐𝑐Pep − 𝑐𝑐Prot ? + 𝐾𝐾D, Pep ⋅ 𝐾𝐾D, Probe 𝑜𝑜 = −𝐾𝐾D, Pep ⋅ 𝐾𝐾D, Pro be ⋅ 𝑐𝑐Prot\n𝜃𝜃 = cos −1 ?−2𝑚𝑚 3 + 9𝑚𝑚𝑛𝑛 − 27𝑜𝑜 ?\n𝑟𝑟 = 2 ⋅ ?𝑚𝑚 2 − 3𝑛𝑛 ⋅ cos 𝜃𝜃3 − 𝑚𝑚\n𝑓𝑓 = 𝑐𝑐Probe ⋅ 𝑟𝑟3 ⋅ 𝐾𝐾D, Probe + 𝑟𝑟"}, "[5]": {"details": "truncated BRCA2 peptides, PALB2C source Hi5 (Figure 2B), N = 1-5, read-out: KD (other peptides)"}, "[6]": {"details": "alanine scan of BRCA2 21-35, N = 1-4, read-out: KD (alanine scan)"}}, "note": "Like-named read-outs stand apart in the source and are kept apart here. Where a SMILES comes first, the peptide text is derived from it. Where no end group is shown, it is not given here. The star is where a group is joined. Azidoacetyl = [N-]=[N+]=NCC(=O)*; Cbz = O=C(OCc1ccccc1)*"}
{"compound": "CC[C@@]1(O)C(=O)OCc2c1cc1n(c2=O)Cc2cc3ccccc3nc2-1", "note": "[CPT, camptothecin]", "values": [{"measurement": "synergistic toxicity with PALB2 depletion", "setting": "[1]", "result": "noticeable synergistic toxicity"}]}
{"compound": "CC[C@H](C)[C@H](NC(=O)[C@H](CCC(=O)O)NC(=O)[C@H](Cc1ccccc1)NC(=O)[C@H](Cc1ccccc1)NC(=O)[C@@H](NC(=O)CNC(=O)CNC(=O)c1ccc2c(c1)C(=O)OC21c2ccc(O)cc2Oc2cc(O)ccc21)[C@@H](C)O)C(=O)N[C@@H](Cc1ccccc1)C(=O)N[C@@H](CCCCN)C(=O)N[C@H](C(=O)N[C@@H](CCCNC(=N)N)C(=O)N[C@@H](CS)C(=O)N[C@@H](CC(N)=O)C(=O)N[C@@H](CCCCN)C(=O)N[C@@H](C)C(=O)N[C@@H](CC(=O)O)C(=O)N[C@@H](CC(C)C)C(=O)NCC(=O)N1CCC[C@H]1C(=O)N[C@H](C(=O)N[C@@H](CO)C(=O)N[C@@H](CC(C)C)C(=O)N[C@@H](CC(N)=O)C(=O)N[C@@H](Cc1c[nH]c2ccccc12)C(=O)N[C@@H](Cc1ccccc1)C(=O)N[C@@H](CCC(=O)O)C(=O)N[C@@H](CCC(=O)O)C(=O)N[C@@H](CC(C)C)C(=O)N[C@@H](CO)C(=O)N[C@@H](CO)C(=O)N[C@@H](CCC(=O)O)C(=O)N[C@@H](C)C(N)=O)[C@@H](C)CC)[C@@H](C)O", "note": "[FAM-GG-BRCA(10-39)] (HELM PEPTIDE1{[O=C1OC2(c3ccc(O)cc3Oc3cc(O)ccc32)c2ccc(C(=O)[*:2])cc21].G.G.T.F.F.E.I.F.K.T.R.C.N.K.A.D.L.G.P.I.S.L.N.W.F.E.E.L.S.S.E.A.[am]}$$$$V2.0; N-terminus and C-terminus assumed)", "values": [{"measurement": "gain in binding affinity from residues 12-21", "setting": "[2]; FAM-GG-BRCA(10-39) compared with FAM-GG-BRCA(21-39)", "result": "6–10 fold"}]}
{"compound": "O=C1CC[C@H](N2Cc3c(OCc4ccc(CN5CCOCC5)cc4)cccc3C2=O)C(=O)N1", "note": "[Iber, iberdomide]", "values": [{"measurement": "recovery of PALB2 levels after wash out", "setting": "[3]; 10 μM IMiD for 24 h, then medium removed and cells washed, knock-in cells", "result": "PALB2 levels recover after 24 h"}, {"measurement": "degradation of PALB2 in IKZF3d knock-in cells", "setting": "[3]; homozygous IKZF3d knock-in HEK293 cells, 24 h treatment", "result": "degradation could also be induced"}]}
{"compound": "CC(C)C[C@@H](C=O)NC(=O)[C@H](CC(C)C)NC(=O)[C@H](CC(C)C)NC(=O)OCc1ccccc1", "note": "[MG132] (Cbz-Leu-Leu-Leu-aldehyde)", "values": [{"measurement": "rescue of pomalidomide-induced PALB2-IKZF3d degradation", "setting": "[3]", "result": "prevented the pomalidomide-induced degradation of PALB2-IKZF 3d"}]}
{"compound": "NS(=O)(=O)OC[C@@H]1C[C@@H](n2ccc3c(N[C@H]4CCc5ccccc54)ncnc32)C[C@@H]1O", "note": "[MLN4924]", "values": [{"measurement": "rescue of pomalidomide-induced PALB2-IKZF3d degradation", "setting": "[3]", "result": "prevented the pomalidomide-induced degradation of PALB2-IKZF 3d"}]}
{"compound": "O=C(c1cc(Cc2n[nH]c(=O)c3ccccc23)ccc1F)N1CCN(C(=O)C2CC2)CC1", "note": "[olaparib]", "values": [{"measurement": "synergistic toxicity with PALB2 depletion", "setting": "[1]", "result": "noticeable synergistic toxicity"}]}
{"compound": "Cy5-DBCO-GG-BRCA(21-39): Cy5-modified peptide: P38 modified with 2-azidoacetic acid and Cy5-DBCO ({Cy5‑DBCO-Azidoacetyl}-GGKADLGPISLNWFEELSSEA; UniProt P51587 21-39, looked up, fragment)", "values": [{"measurement": "Kd", "setting": "[2]", "result": 0.064, "unit": "µM"}]}
{"compound": "FLU-GG-KADLGPISLNWFEELSSEA [FAM-GG-BRCA(21-39), fluorescein-labelled BRCA2(21-39) peptide, Peptide Protein Research Ltd; FP probe]", "values": [{"measurement": "Kd", "setting": "[2]", "result": 0.63, "unit": "µM"}]}
{"compound": "H-DLGPISLNWFEEL-NH2 [Peptide P8]", "values": [{"measurement": "Kd", "setting": "[4]; [5]", "result": 7.9, "unit": "µM"}]}
{"compound": "H-GPISLNWFE-NH2 [Peptide P12]", "values": [{"measurement": "Kd", "setting": "[4]; [5]", "result": 17.9, "unit": "µM"}]}
{"compound": "H-GPISLNWFEEL-NH2 [Peptide P7]", "values": [{"measurement": "Kd", "setting": "[4]; [5]", "result": 82.2, "unit": "µM"}]}
{"compound": "H-KAALGPISLNWFEEL-NH2 [Peptide P29]", "values": [{"measurement": "Kd", "setting": "[4]; [6]", "result": 4.6, "unit": "µM"}]}
{"compound": "H-KADLGAISLNWFEEL-NH2 [Peptide P32]", "values": [{"measurement": "Kd", "setting": "[4]; [6]", "result": 3.6, "unit": "µM"}]}
{"compound": "H-KADLGPASLNWFEEL-NH2 [Peptide P33]", "values": [{"measurement": "Kd", "setting": "[4]; [6]", "result": 5.3, "unit": "µM"}]}
{"compound": "H-KADLGPIALNWFEEL-NH2 [Peptide P34]", "values": [{"measurement": "Kd", "setting": "[4]; [6]", "result": 4.9, "unit": "µM"}]}
{"compound": "H-KADLGPISANWFEEL-NH2 [Peptide P35]", "values": [{"measurement": "Kd", "setting": "[4]; [6]", "result": 6.7, "unit": "µM"}]}
{"compound": "H-KADLGPISLAWFEEL-NH2 [Peptide P36]", "values": [{"measurement": "Kd", "setting": "[4]; [6]", "result": 4, "unit": "µM"}]}
{"compound": "H-KADLGPISLNAFEEL-NH2 [Peptide P25]", "values": [{"measurement": "Kd", "setting": "[4]; [6]", "result": 5.5, "unit": "µM"}]}
{"compound": "H-KADLGPISLNWAEEL-NH2 [Peptide P26]", "values": [{"measurement": "Kd", "setting": "[4]; [6]", "result": 10.1, "unit": "µM"}]}
{"compound": "H-KADLGPISLNWFAEL-NH2 [Peptide P27]", "values": [{"measurement": "Kd", "setting": "[4]; [6]", "result": 5.1, "unit": "µM"}]}
{"compound": "H-KADLGPISLNWFE-NH2 [Peptide P14]", "values": [{"measurement": "Kd", "setting": "[4]; [5]", "result": 25.2, "unit": "µM"}]}
{"compound": "H-KADLGPISLNWFEAL-NH2 [Peptide P28, H-KADLGPISLNWFEAL-NH2]", "values": [{"measurement": "Kd", "setting": "[4]; [6]", "result": 7, "unit": "µM"}]}
{"compound": "H-KADLGPISLNWFEEL-NH2 [Peptide P9]", "values": [{"measurement": "Kd", "setting": "[4]; [5]", "result": 5, "unit": "µM"}]}
